Results published in PubChem BioAssay (NCI).
Several values for one entry are separate records, joined by “and”; a condition that tells them apart may be missing. Equal values may be shown once.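 Method: 48-hour compound exposure of cells in 96-well plates, five concentrations, linear interpolation of endpoints. GI50 marks 50% less growth. TGI marks complete inhibition of growth.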

Key:
Assay in all cases: NCI-60 cell line screen, 48 h
HCT-116 colon = tested on: HCT-116 colon
CCRF-CEM leukemia = tested on: CCRF-CEM leukemia
HOP-92 NSCLC = tested on: HOP-92 NSCLC
SK-MEL-28 melanoma = tested on: SK-MEL-28 melanoma
KM20L2 colon = tested on: KM20L2 colon
CAKI-1 renal = tested on: CAKI-1 renal
EKVX NSCLC = tested on: EKVX NSCLC
A549 NSCLC = tested on: A549 NSCLC
HCT-15 colon = tested on: HCT-15 colon
LOX IMVI melanoma = tested on: LOX IMVI melanoma

Compound	TGI (HCT-116 colon)	TGI (CCRF-CEM leukemia) [µM]	TGI (HOP-92 NSCLC)	TGI (SK-MEL-28 melanoma)	TGI (KM20L2 colon) [µM]	TGI (CAKI-1 renal)	TGI (EKVX NSCLC)	TGI (A549 NSCLC)	TGI (HCT-15 colon)	TGI (LOX IMVI melanoma) [µM]	GI50 (EKVX NSCLC)	GI50 (LOX IMVI melanoma) [µM]	GI50 (HCT-116 colon)	GI50 (CCRF-CEM leukemia)	GI50 (HOP-92 NSCLC)	GI50 (SK-MEL-28 melanoma)	GI50 (CAKI-1 renal)	GI50 (A549 NSCLC)	GI50 (HCT-15 colon)
Cc1cc(=O)oc2c(C3=NN(C=O)C(c4ccccc4)C3)c(O)ccc12 (stereo not given)	> 100 µM	> 100	74.5 µM	> 100 µM	> 100	> 94.9 µM	> 100 µM	> 32.8 µM	> 100 µM	> 100	–	–	–	–	–	–	–	–	–
CCN(CC)CCNc1c2ccccc2nc2cccc([N+](=O)[O-])c12	0.0182 µM and 0.0466 µM	0.48	0.0261 µM	0.0566 µM and 0.152 µM	0.0553	0.0254 µM and 0.0721 µM	0.0298 µM and 0.08 µM	0.018 µM and 0.0391 µM	0.0205 µM and 0.0398 µM	–	0.029 µM	0.0363	–	–	–	–	–	–	–
CC(=O)OCCOCn1c2ccccc2c2c3c(c4c5ccccc5n(COCCOC(C)=O)c4c21)C(=O)N(Cc1ccccc1)C3=O	> 100 µM	> 100	> 100 µM	> 100 µM	> 100	–	> 100 µM	> 100 µM	> 100 µM	> 100	–	–	–	–	–	–	–	–	–
C#CCN(N=O)C(=O)NC(CCCCNC(=O)OCc1ccccc1)C(=O)OCc1ccccc1 (stereo not given)	> 100 µM	41.8	32.6 µM	77.6 µM	> 100	–	55.3 µM	> 100 µM	47.2 µM	59.1	–	–	–	–	–	–	–	–	–
CC(=O)NNc1nc(C)c(C(=O)NNC(=O)C(=O)Nc2ccc(Cl)c([N+](=O)[O-])c2)s1	> 100 µM	56.8	> 100 µM	> 100 µM	> 100	> 100 µM	> 100 µM	> 100 µM	> 100 µM	> 100	–	–	–	–	–	–	–	–	–
COc1cc(/C=C/C(=O)c2cccc3ccccc23)cc(OC)c1OC	13.8 µM	7.27	–	19.4 µM	13.6	23.2 µM	28.7 µM	37 µM	–	12.1	–	–	–	–	–	–	–	–	–
COC(=O)C(=O)C(CC(=O)Nc1cc(Cl)ccc1Cl)C(=O)OC (stereo not given)	> 100 µM	> 100	> 100 µM	> 100 µM	> 100	> 100 µM	> 100 µM	> 100 µM	> 100 µM	> 100	–	–	–	–	–	–	–	–	–
O=C(NCCCCCCCCCCCCNC(=O)c1cnc2ccccc2n1)c1cnc2ccccc2n1	> 100 µM	> 100	–	> 100 µM	> 100	> 100 µM	> 100 µM	> 100 µM	> 100 µM	> 100	–	–	–	–	–	–	–	–	–
O/N=C1/CCC/C1=C\c1ccccc1	> 100 µM	> 100	> 100 µM	> 100 µM	> 100	> 100 µM	> 100 µM	> 100 µM	> 100 µM	> 100	–	–	–	–	–	–	–	–	–
CCOC(=O)c1oc2c(OC)ccc3c2c1CCC3	–	> 100	> 100 µM	> 100 µM	> 100	–	> 100 µM	> 100 µM	> 100 µM	> 100	–	–	–	–	–	–	–	–	–
Cc1cccc(C(C)(C)C)c1NC(=O)C(C#N)C1=C(Cl)C(=O)c2ccccc2C1=O (stereo not given)	27.2 µM	10.7	9.68 µM	31.5 µM	38.4	31.5 µM	17.1 µM	46.7 µM	–	30.7	–	–	–	–	–	–	–	–	–
CCCCC(C(=O)C(=O)Nc1ccc(C)cc1C)C(=O)C(C)C (stereo not given)	> 100 µM	–	> 100 µM	> 100 µM	> 100	> 100 µM	> 100 µM	> 100 µM	> 100 µM	> 100	–	–	–	–	–	–	–	–	–
CC(=O)Nc1ccccc1-c1nc2ccccc2nc1-c1ccccc1	> 100 µM	> 100	> 100 µM	> 100 µM	> 100	> 100 µM	> 100 µM	> 100 µM	> 100 µM	–	–	–	–	–	–	–	–	–	–
CC(Oc1cc2oc(=O)cc(-c3ccccc3)c2cc1Cl)C(=O)O (stereo not given)	> 100 µM	> 100	> 100 µM	> 100 µM	> 100	> 100 µM	> 100 µM	> 100 µM	–	> 100	–	–	–	–	–	–	–	–	–
NCCOc1ccc(/C(=C(/Cl)c2ccccc2)c2ccccc2)cc1	20.2 µM	24.6	16.8 µM	18.6 µM	19.9	23.2 µM	30.1 µM	31.5 µM	19.1 µM	16.6	–	–	–	–	–	–	–	–	–
O=C(CCc1nc(=S)[nH][nH]1)Nc1cc(Cl)ccc1Cl	> 100 µM	> 100	> 100 µM	> 100 µM	> 100	> 100 µM	> 100 µM	> 100 µM	> 100 µM	–	–	–	–	–	–	–	–	–	–
NC(CCSCC(F)(F)F)C(=O)O (stereo not given)	> 100 µM	> 100	> 100 µM	> 100 µM	> 100	> 100 µM	> 100 µM	> 100 µM	> 100 µM	> 100	–	–	–	–	–	–	–	–	–
N#CCCN(CCC#N)c1ccc(/C=C(/NC(=O)c2cc([N+](=O)[O-])ccc2Cl)C(=O)N=[N+]=[N-])cc1	> 100 µM	> 100	–	> 100 µM	> 100	> 100 µM	> 100 µM	> 100 µM	> 100 µM	> 100	–	–	–	–	–	–	–	–	–
CC(C)N(C(=O)C12C3C4C1C1C2C3C41C(=O)C(C)(C)C)C(C)C (stereo not given)	> 100 µM	> 100	–	> 100 µM	> 100	> 100 µM	> 100 µM	> 100 µM	–	> 100	–	–	–	–	–	–	–	–	–
CC(=O)OC1C[C@H]2C(OC(=O)c3ccccc3)C3C4(OC(C)=O)COC4C[C@H](OC(C)=O)[C@@]3(C)C(OC(C)=O)[C@H](OC(C)=O)C(=C1C)C2(C)C (stereo not given in full)	> 100 µM	> 100	–	> 100 µM	> 100	31.4 µM	> 100 µM	> 100 µM	> 100 µM	> 100	–	–	–	–	–	–	–	–	–
Cc1cc2c(cc1Cl)SC(N(c1ccccc1Cl)S(=O)(=O)c1ccc(Br)s1)=NS2(=O)=O	34.3 µM	82.1	21.8 µM	29.6 µM	–	48.4 µM	75.5 µM	> 100 µM	32.7 µM	25.5	21.9 µM	12.1	16.5 µM	25.8 µM	6.62 µM	15.2 µM	19.4 µM	25.7 µM	15.5 µM
COc1cc2c(Oc3ccc(NC(=O)C4(C(=O)Nc5ccc(F)cc5)CC4)cc3F)ccnc2cc1OCCCN1CCOCC1	2.02 µM and 2.06 µM	–	1.65 µM and 0.991 µM	2.47 µM and 2.69 µM	–	1.97 µM and > 4.86 µM	4.73 µM and > 10 µM	1.88 µM and 2.2 µM	3.8 µM and 4.04 µM	1.95	1.16 µM and 1.93 µM	0.713	0.609 µM and 0.586 µM	0.531 µM and 0.383 µM	0.243 µM and 0.0433 µM	1.12 µM and 1.25 µM	0.547 µM and 0.768 µM	0.556 µM and 0.625 µM	0.935 µM and 1.03 µM
